Assay results published in the NIST ThermoML archive (doi:10.1021/je050389b).

Experiment: xn = mol fraction of the nth substance listed
Conditions: Liquid; for viscosity: 100.5 kPa; for mass density: 101 kPa

CCCCCCCC(=O)OCC [ethyl octanoate] + CCO
Conditions | mass density, 288.15 K [kg/m3] | mass density, 298.15 K [kg/m3] | mass density, 308.15 K [kg/m3] | mass density, 318.15 K [kg/m3] | viscosity, 288.15 K [mPa·s] | viscosity, 298.15 K [mPa·s] | viscosity, 308.15 K [mPa·s] | viscosity, 318.15 K [mPa·s]
x1 = 0.05 | 805.14 | 796.5 | 787.73 | 778.81 | 1.322 | 1.094 | 0.915 | 0.772
x1 = 0.1 | 814.37 | 805.66 | 796.82 | 787.83 | 1.299 | 1.081 | 0.907 | 0.773
x1 = 0.15 | 822.04 | 813.27 | 804.39 | 795.36 | 1.306 | 1.087 | 0.915 | 0.78
x1 = 0.2 | 828.52 | 819.74 | 810.84 | 801.79 | 1.32 | 1.098 | 0.926 | 0.791
x1 = 0.25 | 833.98 | 825.17 | 816.25 | 807.19 | 1.337 | 1.112 | 0.94 | 0.804
x1 = 0.3 | 838.69 | 829.87 | 820.94 | 811.88 | 1.356 | 1.129 | 0.953 | 0.817
x1 = 0.35 | 842.77 | 833.94 | 825.02 | 815.96 | 1.375 | 1.145 | 0.969 | 0.831
x1 = 0.4 | 846.39 | 837.55 | 828.63 | 819.58 | 1.398 | 1.164 | 0.984 | 0.844
x1 = 0.45 | 849.59 | 840.77 | 831.86 | 822.83 | 1.42 | 1.183 | 1 | 0.859
x1 = 0.5 | 852.45 | 843.63 | 834.72 | 825.71 | 1.443 | 1.202 | 1.016 | 0.873
x1 = 0.55 | 855.04 | 846.23 | 837.34 | 828.36 | 1.468 | 1.222 | 1.033 | 0.888
x1 = 0.6 | 857.4 | 848.6 | 839.72 | 830.77 | 1.492 | 1.242 | 1.05 | 0.903
x1 = 0.65 | 859.54 | 850.77 | 841.92 | 832.99 | 1.517 | 1.262 | 1.068 | 0.917
x1 = 0.7 | 861.52 | 852.76 | 843.94 | 835.05 | 1.542 | 1.284 | 1.085 | 0.933
x1 = 0.75 | 863.4 | 854.68 | 845.88 | 837.01 | 1.568 | 1.306 | 1.103 | 0.948
x1 = 0.8 | 865.13 | 856.41 | 847.64 | 838.81 | 1.595 | 1.327 | 1.121 | 0.964
x1 = 0.85 | 866.72 | 858 | 849.25 | 840.47 | 1.623 | 1.35 | 1.14 | 0.979
x1 = 0.9 | 868.19 | 859.5 | 850.78 | 842.05 | 1.649 | 1.371 | 1.159 | 0.996
x1 = 0.95 | 869.6 | 860.93 | 852.26 | 843.57 | 1.673 | 1.391 | 1.177 | 1.013
x1 = 1 | 870.79 | 862.15 | 853.52 | 844.87 | 1.697 | 1.411 | 1.193 | 1.027

CCOC(=O)Cc1ccccc1 [ethyl phenylacetate] + CCO
Conditions | mass density, 288.15 K [kg/m3] | mass density, 298.15 K [kg/m3] | mass density, 308.15 K [kg/m3] | mass density, 318.15 K [kg/m3] | viscosity, 288.15 K [mPa·s] | viscosity, 298.15 K [mPa·s] | viscosity, 308.15 K [mPa·s] | viscosity, 318.15 K [mPa·s]
x1 = 0.05 | 825.34 | 816.54 | 807.65 | 798.61 | 1.366 | 1.127 | 0.947 | 0.798
x1 = 0.1 | 852 | 843.05 | 834 | 824.82 | 1.393 | 1.151 | 0.967 | 0.823
x1 = 0.15 | 874.72 | 865.65 | 856.49 | 847.17 | 1.447 | 1.195 | 1.003 | 0.855
x1 = 0.2 | 894.42 | 885.25 | 875.99 | 866.6 | 1.513 | 1.244 | 1.044 | 0.891
x1 = 0.25 | 911.6 | 902.37 | 893.03 | 883.57 | 1.584 | 1.298 | 1.089 | 0.93
x1 = 0.3 | 926.72 | 917.42 | 908.03 | 898.52 | 1.663 | 1.357 | 1.138 | 0.971
x1 = 0.35 | 940.14 | 930.79 | 921.36 | 911.82 | 1.742 | 1.418 | 1.188 | 1.012
x1 = 0.4 | 952.17 | 942.79 | 933.33 | 923.77 | 1.822 | 1.479 | 1.239 | 1.055
x1 = 0.45 | 963.02 | 953.61 | 944.13 | 934.56 | 1.904 | 1.543 | 1.292 | 1.099
x1 = 0.5 | 972.79 | 963.35 | 953.86 | 944.28 | 1.989 | 1.61 | 1.344 | 1.145
x1 = 0.55 | 981.67 | 972.24 | 962.73 | 953.16 | 2.076 | 1.677 | 1.399 | 1.191
x1 = 0.6 | 989.81 | 980.37 | 970.86 | 961.29 | 2.164 | 1.747 | 1.455 | 1.238
x1 = 0.65 | 997.27 | 987.81 | 978.31 | 968.75 | 2.255 | 1.821 | 1.513 | 1.286
x1 = 0.7 | 1004.13 | 994.68 | 985.19 | 975.65 | 2.348 | 1.895 | 1.571 | 1.336
x1 = 0.75 | 1010.49 | 1001.03 | 991.56 | 982.04 | 2.446 | 1.974 | 1.635 | 1.387
x1 = 0.8 | 1016.36 | 1006.93 | 997.48 | 987.98 | 2.555 | 2.053 | 1.702 | 1.441
x1 = 0.85 | 1021.84 | 1012.41 | 1002.97 | 993.53 | 2.672 | 2.14 | 1.772 | 1.498
x1 = 0.9 | 1026.95 | 1017.55 | 1008.14 | 998.73 | 2.79 | 2.23 | 1.847 | 1.558
x1 = 0.95 | 1031.75 | 1022.36 | 1012.99 | 1003.61 | 2.919 | 2.33 | 1.914 | 1.605
x1 = 1 | 1036.35 | 1026.96 | 1017.6 | 1008.26 | 3.002 | 2.384 | 1.948 | 1.624
